From patent US9670210B2, “Cyclopropylamines as LSD1 inhibitors” (Incyte Corporation, priority 2014, dated 2017)

Molecular target: LSD-1 enzyme (Homo sapiens (Human), UniProt O60341)
Procedure: LSD1 Histone Demethylase Biochemical Assay
LANCE LSD1/KDM1A demethylase assay-10 μL of 1 nM LSD-1 enzyme (ENZO BML-SE544-0050) in the assay buffer (50 mM Tris, pH 7.5, 0.01% Tween-20, 25 mM NaCl, 5 mM DTT) were preincubated for 1 hour at 25° C. with 0.8 μL compound/DMSO dotted in black 384 well polystyrene plates. […] After stopping the reactions plates were incubated for 30 minutes and read on a PHERAstar FS plate reader (BMG Labtech).

SMILES | IC50 [µM]
O=C(O)C1(CN2CCC(CN[C@@H]3C[C@H]3c3ccccc3)(COCc3ccccc3)CC2)CCC1 [Example 73, 1-{[4-[(benzyloxy)methyl]-4-({[(1R,2S)-2-phenylcyclopropyl]amino}methyl)piperidin-1-yl]methyl}cyclobutanecarboxylic acid] | < 0.1
N#Cc1ccc(CC2(CN[C@@H]3C[C@H]3c3ccccc3)CCN(CC3(C(=O)O)CC3)CC2)c(F)c1 [Example 74, 1-{[4-(4-cyano-2-fluorobenzyl)-4-({[(1R,2S)-2-phenylcyclopropyl]amino}methyl)piperidin-1-yl]methyl}cyclopropanecarboxylic acid] | < 0.1
O=C(O)C1(CN2CCC(CN[C@@H]3C[C@H]3c3ccccc3)(COc3ccccc3F)CC2)CC1 [Example 75, 1-{[4-[(2-fluorophenoxy)methyl]-4-({[(1R,2S)-2-phenylcyclopropyl]amino}methyl)piperidin-1-yl]methyl}cyclopropanecarboxylic acid] | < 0.1
O=C(O)C1(CN2CCC(CN[C@@H]3C[C@H]3c3ccccc3)(COc3ccccc3F)CC2)CCC1 [Example 76, 1-{[4-[(2-fluorophenoxy)methyl]-4-({[(1R,2S)-2-phenylcyclopropyl]amino}methyl)piperidin-1-yl]methyl}cyclobutanecarboxylic acid] | < 0.1
O=C(O)C1(CN2CCC(CN[C@@H]3C[C@H]3c3ccccc3)(COc3cccc(F)c3)CC2)CC1 [Example 77, 1-{[4-[(3-fluorophenoxy)methyl]-4-({[(1R,2S)-2-phenylcyclopropyl]amino}methyl)piperidin-1-yl]methyl}cyclopropanecarboxylic acid] | < 0.1
O=C(O)C1(CN2CCC(CN[C@@H]3C[C@H]3c3ccccc3)(COc3cccc(F)c3)CC2)CCC1 [Example 78, 1-{[4-[(3-fluorophenoxy)methyl]-4-({[(1R,2S)-2-phenylcyclopropyl]amino}methyl)piperidin-1-yl]methyl}cyclobutanecarboxylic acid] | < 0.1
N#Cc1ccccc1OCC1(CN[C@@H]2C[C@H]2c2ccccc2)CCN(CC2(C(=O)O)CC2)CC1 [Example 79, 1-{[4-[(2-cyanophenoxy)methyl]-4-({[(1R,2S)-2-phenylcyclopropyl]amino}methyl)piperidin-1-yl]methyl}cyclopropanecarboxylic acid] | < 0.1
N#Cc1cccc(OCC2(CN[C@@H]3C[C@H]3c3ccccc3)CCN(CC3(C(=O)O)CC3)CC2)c1 [Example 80, 1-{[4-[(3-cyanophenoxy)methyl]-4-({[(1R,2S)-2-phenylcyclopropyl]amino}methyl)piperidin-1-yl]methyl}cyclopropanecarboxylic acid] | < 0.1
N#Cc1ccc(OCC2(CN[C@@H]3C[C@H]3c3ccccc3)CCN(CC3(C(=O)O)CC3)CC2)cc1 [Example 81, 1-{[4-[(4-cyanophenoxy)methyl]-4-({[(1R,2S)-2-phenylcyclopropyl]amino}methyl)piperidin-1-yl]methyl}cyclopropanecarboxylic acid] | < 0.1
N#Cc1ccc(OCC2(CN[C@@H]3C[C@H]3c3ccccc3)CCN(CC3(C(=O)O)CC3)CC2)c(F)c1 [Example 82, 1-{[4-[(4-cyano-2-fluorophenoxy)methyl]-4-({[(1R,2S)-2-phenylcyclopropyl]amino}methyl)piperidin-1-yl]methyl}cyclopropanecarboxylic acid] | < 0.1
N#Cc1ccccc1OCC1(CN[C@@H]2C[C@H]2c2ccccc2)CCN(CC2(C(=O)O)CCC2)CC1 [Example 83, 1-{[4-[(2-cyanophenoxy)methyl]-4-({[(1R,2S)-2-phenylcyclopropyl]amino}methyl)piperidin-1-yl]methyl}cyclobutanecarboxylic acid] | < 0.1
N#Cc1cccc(OCC2(CN[C@@H]3C[C@H]3c3ccccc3)CCN(CC3(C(=O)O)CCC3)CC2)c1 [Example 84, 1-{[4-[(3-cyanophenoxy)methyl]-4-({[(1R,2S)-2-phenylcyclopropyl]amino}methyl)piperidin-1-yl]methyl}cyclobutanecarboxylic acid] | < 0.1
